For 30 compounds, IC50 results are on record in patent publication US20140073634A1 (Institute For Applied Cancer Science/The University of …, priority 2012, published 2014).

For the experiment, the system named is 293T-HRE-GFP-luc cells. The experiment in a line: Cell-based reporter assay for IC50 determinations (HRE-luciferase, hypoxia). Conditions: 6 hrs hypoxia (1% O2), luminescence. The method in brief: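 IC50s come from four-parameter logistic fits of luminescence. Compounds in 1:3 DMSO series were added to 293T-HRE-GFP-luc cells, 30 min normoxia preceding 6 hrs at 1% O2, 37° C; HRE-luciferase signal was then measured with Steadylite Plus reagent.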
A general note: A reporter such as luciferase makes a cellular process visible.

The term IC50 denotes the concentration at which inhibition is half-maximal. Higher therefore signals a need for much substance.

The structures appear in SMILES notation. Structures can show the parent of a compound that is named as a salt. Bounds are passed on as bounds.

In the case of `O=c1ccc(-c2nc(-c3ccc(OC(F)(F)F)cc3)no2)cn1Cc1cccc(OCC(O)CO)c1` (single isomer, unassigned) [Example 55a, (2R)- or (2S)-1-(3-(2,3-dihydroxypropoxy)benzyl)-5-(3-(4-(trifluoromethoxy)phenyl)-1,2,4-oxadiazol-5-yl)pyridin-2(1H)-one], the IC50 was less than 100 nM.
For `O=c1ccc(-c2nc(-c3ccc(OC(F)(F)F)cc3)no2)cn1Cc1cccc(OCCO)c1` [Example 147, 1-{[3-(2-hydroxyethoxy)phenyl]methyl}-5-{3-[4-(trifluoromethoxy)phenyl]-1,2,4-oxadiazol-5-yl}-1,2-dihydropyridin-2-one], the IC50 (6 h) is less than 100 nM.
For the compound `C=Cc1cccc(Cn2cc(-c3nc(-c4ccc(OC(F)(F)F)cc4)no3)ccc2=O)c1` [Example 52, 5-(3-(4-(Trifluoromethoxy)phenyl)-1,2,4-oxadiazol-5-yl)-1-(3-vinylbenzyl)pyridin-2(1H)-one], the IC50 (6 h) was less than 100 nM.
For the compound `CN1CCN(C(=O)c2cccc(Cn3nc(-c4nc(-c5ccc(OC(F)(F)F)cc5)no4)ccc3=O)c2)CC1` [Example 112, 2-(3-(4-methylpiperazine-1-carbonyl)benzyl)-6-(3-(4-(trifluoromethoxy)phenyl)-1,2,4-oxadiazol-5-yl)pyridazin-3(2H)-one], the IC50 (6 h) is 100 to 1000 nM.
`COCCOc1cccc(Cn2cc(-c3noc(-c4ccc(COC)cc4)n3)ccc2=O)c1` [Example 227, 1-{[3-(2-methoxyethoxy)phenyl]methyl}-5-{5-[4-(methoxymethyl)phenyl]-1,2,4-oxadiazol-3-yl}-1,2-dihydropyridin-2-one] yielded a half-maximal inhibitory concentration (IC50) (6 h) of less than 100 nM.
Same read-out and setting: then `Cc1ccc(-c2nc(-c3ccc(OC(F)(F)F)cc3)no2)c(=O)n1Cc1cccc(OC(F)F)c1` [Example 266, 1-{[3-(difluoromethoxy)phenyl]methyl}-6-methyl-3-{3-[4-(trifluoromethoxy)phenyl]-1,2,4-oxadiazol-5-yl}-1,2-dihydropyridin-2-one], with 100 to 1000 nM; and `CS(=O)(=O)CCCOc1cccc(Cn2cc(-c3nnc(-c4ccc(OC(F)F)cc4)o3)ccc2=O)c1` [Example 262, 5-{5-[4-(difluoromethoxy)phenyl]-1,3,4-oxadiazol-2-yl}-1-{[3-(3-methanesulfonylpropoxy)phenyl]methyl}-1,2-dihydropyridin-2-one], with less than 100 nM.
On to `O=c1ccc(-c2nc(-c3ccc(OC(F)(F)F)cc3)no2)cn1Cc1cccc(OCC(O)CO)c1` (single isomer, unassigned) [Example 55b, (2S)- or (2R)-1-(3-(2,3-dihydroxypropoxy)benzyl)-5-(3-(4-(trifluoromethoxy)phenyl)-1,2,4-oxadiazol-5-yl)pyridin-2(1H)-one], for which the half-inhibitory concentration (IC50) was less than 100 nM.
As for `CS(=O)(=O)C1CCN(c2cccc(Cn3cc(-c4cc(-c5ccc(OC(F)(F)F)cc5)on4)ccc3=O)c2)CC1` [Example 99, 1-(3-(4-(Methylsulfonyl)piperidin-1-yl)benzyl)-5-(5-(4-(trifluoromethoxy)phenyl)isoxazol-3-yl)pyridin-2(1H)-one], the half-maximal inhibitory concentration (IC50) (6 h) was less than 100 nM.
Still for that read-out and setting: then `O=c1ccc(-c2nc(-c3ccc(OC(F)(F)F)cc3)no2)cn1Cc1cccc(Br)c1` [Example 141, 1-[(3-bromophenyl)methyl]-5-{3-[4-(trifluoromethoxy)phenyl]-1,2,4-oxadiazol-5-yl}-1,2-dihydropyridin-2-one], with 100 to 1000 nM; and `CN1CCN(c2cc(Cn3cccc(C(=O)Nc4ccc(OC(F)(F)F)cc4)c3=O)ccn2)CC1` [Example 9, 1-methyl-4-(4-((2-oxo-3-((4-(trifluoromethoxy)phenyl)carbamoyl)pyridin-1(2H)-yl)methyl)pyridin-1-ium-2-yl)piperazin-1-ium bis-trifluoroacetate], with 100 to 1000 nM.
`CC(C)(C)[Si](C)(C)OCCOc1cccc(Cn2nc(-c3nc(-c4ccc(OC(F)(F)F)cc4)no3)ccc2=O)c1` [Example 178, 2-[(3-{2-[(tert-butyldimethylsilyl)oxy]ethoxy}phenyl)methyl]-6-{3-[4-(trifluoromethoxy)phenyl]-1,2,4-oxadiazol-5-yl}-2,3-dihydropyridazin-3-one] gave an IC50 of 100 to 1000 nM.
Take `Cc1cnc(-c2nc(-c3ccc(C(C)(C)C)cc3)no2)nc1Cc1cccc(N2CCN(C)CC2)c1` [Example 89, 3-(4-(Tert-butyl)phenyl)-5-(5-methyl-4-(3-(4-methylpiperazin-1-yl)benzyl)pyrimidin-2-yl)-1,2,4-oxadiazole]: the concentration for half-maximal inhibition (IC50) (6 h) is less than 100 nM.
Where the note is “6 h”, `COCCOc1cccc(Cn2cc(-c3noc(-c4cnc(NCC(C)(C)C)nc4)n3)ccc2=O)c1` [Example 247, 5-(5-{2-[(2,2-dimethylpropyl)amino]pyrimidin-5-yl}-1,2,4-oxadiazol-3-yl)-1-{[3-(2-methoxyethoxy)phenyl]methyl}-1,2-dihydropyridin-2-one] displayed an IC50 of less than 100 nM.
Under “6 h”, `COCCOc1cccc(Cn2cc(-c3noc(-c4ccc(C(C)(C)C#N)cc4)n3)ccc2=O)c1` [Example 68, 2-(4-(3-(1-(3-(2-Methoxyethoxy)benzyl)-6-oxo-1,6-dihydropyridin-3-yl)-1,2,4-oxadiazol-5-yl)phenyl)-2-methylpropanenitrile] registered an IC50 of 100 to 1000 nM.
The same measure, in the same setting: then `CS(=O)(=O)CCCOc1cccc(Cn2cc(-c3noc(-c4ccc(OC(F)(F)F)cc4)n3)ccc2=O)c1` [Example 69, 1-(3-(3-(Methylsulfonyl)propoxy)benzyl)-5-(5-(4-(trifluoromethoxy)phenyl)-1,2,4-oxadiazol-3-yl)pyridin-2(1H)-one], with less than 100 nM.
Still for that read-out and setting: then `CNC(=O)c1cc(Cn2nc(-c3nc(-c4ccc(OC(F)(F)F)cc4)no3)ccc2=O)ccc1F` [Example 140, 2-fluoro-N-methyl-5-[(6-oxo-3-{3-[4-(trifluoromethoxy)phenyl]-1,2,4-oxadiazol-5-yl}-1,6-dihydropyridazin-1-yl)methyl]benzamide], with less than 100 nM.
`O=c1ccc(-c2nc(-c3ccc(OC(F)(F)F)cc3)no2)nn1Cc1cccc(O)c1` [Example 174, 2-[(3-hydroxyphenyl)methyl]-6-{3-[4-(trifluoromethoxy)phenyl]-1,2,4-oxadiazol-5-yl}-2,3-dihydropyridazin-3-one]: the IC50 (6 h) lay in the range of 100 to 1000 nM.
Still for that read-out and setting: then `COCCOc1cccc(Cn2cc(-c3noc(-c4cnc(OC(C)C)nc4)n3)ccc2=O)c1` [Example 241, 1-{[3-(2-methoxyethoxy)phenyl]methyl}-5-{5-[2-(propan-2-yloxy)pyrimidin-5-yl]-1,2,4-oxadiazol-3-yl}-1,2-dihydropyridin-2-one], with less than 100 nM; and `COCCOc1cccc(Cn2cc(-c3noc(-c4ccc(OC(C)C)cc4)n3)ccc2=O)c1` [Example 196, 1-{[3-(2-methoxyethoxy)phenyl]methyl}-5-{5-[4-(propan-2-yloxy)phenyl]-1,2,4-oxadiazol-3-yl}-1,2-dihydropyridin-2-one], with 100 to 1000 nM.
Still for that read-out and setting: then `O=c1c(-c2nc(-c3ccc(OC(F)(F)F)cc3)no2)cccn1Cc1ccnc(N2CCOCC2)c1` [Example 127, 1-((2-morpholinopyridin-4-yl)methyl)-3-(3-(4-(trifluoromethoxy)phenyl)-1,2,4-oxadiazol-5-yl)pyridin-2(1H)-one], with 100 to 1000 nM; and `O=c1ccc(-c2nc(-c3ccc(OC(F)(F)F)cc3)no2)nn1Cc1ccnc(N2CCOCC2)c1` [Example 12, 2-((2-Morpholinopyridin-4-yl)methyl)-6-(3-(4-(trifluoromethoxy)phenyl)-1,2,4-oxadiazol-5-yl)pyridazin-3(2H)-one], with less than 100 nM.
The same measure, in the same setting: then `CC(C)(O)c1cccc(Cn2cc(-c3noc(-c4ccc(C5CCOCC5)cc4)n3)ccc2=O)c1` [Example 214, 1-{[3-(2-hydroxypropan-2-yl)phenyl]methyl}-5-{5-[4-(oxan-4-yl)phenyl]-1,2,4-oxadiazol-3-yl}-1,2-dihydropyridin-2-one], with less than 100 nM; and `COCCOc1cccc(Cn2cc(-c3noc(-c4ccc(C(C)C)cc4)n3)ccc2=O)c1` [Example 195, 1-{[3-(2-methoxyethoxy)phenyl]methyl}-5-{5-[4-(propan-2-yl)phenyl]-1,2,4-oxadiazol-3-yl}-1,2-dihydropyridin-2-one], with less than 100 nM.
`COCCOc1cccc(Cn2cc(-c3noc(-c4ccc(N5CCOC5=O)cc4)n3)ccc2=O)c1` [Example 190, 1-{[3-(2-methoxyethoxy)phenyl]methyl}-5-{5-[4-(2-oxo-1,3-oxazolidin-3-yl)phenyl]-1,2,4-oxadiazol-3-yl}-1,2-dihydropyridin-2-one] came in with an IC50 (6 h) of less than 100 nM.
On the same count and under the same terms, then `COCCOc1cccc(Cn2cc(-c3noc(-c4cnc(N5CCOCC5)nc4)n3)ccc2=O)c1` [Example 242, 1-{[3-(2-methoxyethoxy)phenyl]methyl}-5-{5-[2-(morpholin-4-yl)pyrimidin-5-yl]-1,2,4-oxadiazol-3-yl}-1,2-dihydropyridin-2-one], with less than 100 nM; and `Cc1ccc(C(=O)Nc2ccc(OC(F)(F)F)cc2)c(=O)n1Cc1cccc(N2CCN(C)CC2)c1` [Example 10, 1-Methyl-4-(3-((6-methyl-2-oxo-3-((4-(trifluoromethoxy)phenyl)carbamoyl)pyridin-1(2H)-yl)methyl)phenyl)piperazin-1-ium trifluoroacetate], with less than 100 nM.
The compound `CS(=O)(=O)C1CCN(c2cccc(Cn3cc(-c4nnc(-c5ccc(OC(F)F)cc5)o4)ccc3=O)c2)CC1` [Example 105, 5-(5-(4-(Difluoromethoxy)phenyl)-1,3,4-oxadiazol-2-yl)-1-(3-(4-(methylsulfonyl)piperidin-1-yl)benzyl)pyridin-2(1H)-one] registered a half-maximal inhibitory concentration (IC50) (6 h) of less than 100 nM.
The same measure, in the same setting: then `COCCCNc1cc(Cn2c(C)ccc(-c3nc(-c4ccc(OC(F)(F)F)cc4)no3)c2=O)ccn1` [Example 17, 2-((3-Methoxypropyl)amino)-4-((6-methyl-2-oxo-3-(3-(4-(trifluoromethoxy)phenyl)-1,2,4-oxadiazol-5-yl)pyridin-1(2H)-yl)methyl)pyridin-1-ium trifluoroacetate], with 100 to 1000 nM; and `CN(C)C(=O)Cc1cccc(Cn2cc(-c3nc(-c4ccc(OC(F)(F)F)cc4)no3)ccc2=O)c1` [Example 157, N,N-dimethyl-2-{3-[(2-oxo-5-{3-[4-(trifluoromethoxy)phenyl]-1,2,4-oxadiazol-5-yl}-1,2-dihydropyridin-1-yl)methyl]phenyl}acetamide], with less than 100 nM.
